Test results from patent US20260078119A1, “DEGRADER COMPOUNDS AND USES THEREOF” (Bristol-Myers Squibb Company, priority 2024, published 2026).
Like-named read-outs stand apart in the source and are kept apart here.

Columns and labels:
CAL-51 cells = assay: CAL-51 Cell Proliferation Assay; type: cell-based; settings: for EC50: 120 hours incubation, 10-point dose response, 4-fold dilutions starting at 10 μM, Cell-Titer-Glo, read-out: CAL-51 Prolif EC50; for CAL-51 Prolif Ymin: minimal percent of DMSO control observed in the concentrations tested (Ymin-obs), 120 hours
Outline: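 Cells seeded at 350/well in RPMI complete medium onto 10-point, 4-fold compound dilutions from 10 μM (0.1% DMSO), in duplicate, and grown 120 h at 37 °C. CellTiter-Glo luminescence, blank-subtracted and normalised to DMSO, was fitted with a four-parameter logistic to give EC50; Ymin-obs is the lowest observed percent of DMSO control.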

FAK = target: T1, FAK (Homo sapiens, UniProt Q05397); assay: FAK-HiBiT Degradation Assay; type: cell-based; settings: for DC50: read-out: FAK HiBiT EC50; for FAK HiBiT Ymin: lower limit of the four parameter fit (value A), Ymax derived using DMSO control, JHH-4-FAK-HiBiT cells, two hours
T1 construct: homozygous knock-in of a HiBiT tag (Promega Corporation, Madison, WI) to the C-terminus of the FAK gene in its natural genomic locus; endogenous in cells; host or cells: JHH-4-FAK-HiBiT clone d01 (CRISPR-Cas9 knock-in at the endogenous locus)
T1 sequence (Q05397 whole entry): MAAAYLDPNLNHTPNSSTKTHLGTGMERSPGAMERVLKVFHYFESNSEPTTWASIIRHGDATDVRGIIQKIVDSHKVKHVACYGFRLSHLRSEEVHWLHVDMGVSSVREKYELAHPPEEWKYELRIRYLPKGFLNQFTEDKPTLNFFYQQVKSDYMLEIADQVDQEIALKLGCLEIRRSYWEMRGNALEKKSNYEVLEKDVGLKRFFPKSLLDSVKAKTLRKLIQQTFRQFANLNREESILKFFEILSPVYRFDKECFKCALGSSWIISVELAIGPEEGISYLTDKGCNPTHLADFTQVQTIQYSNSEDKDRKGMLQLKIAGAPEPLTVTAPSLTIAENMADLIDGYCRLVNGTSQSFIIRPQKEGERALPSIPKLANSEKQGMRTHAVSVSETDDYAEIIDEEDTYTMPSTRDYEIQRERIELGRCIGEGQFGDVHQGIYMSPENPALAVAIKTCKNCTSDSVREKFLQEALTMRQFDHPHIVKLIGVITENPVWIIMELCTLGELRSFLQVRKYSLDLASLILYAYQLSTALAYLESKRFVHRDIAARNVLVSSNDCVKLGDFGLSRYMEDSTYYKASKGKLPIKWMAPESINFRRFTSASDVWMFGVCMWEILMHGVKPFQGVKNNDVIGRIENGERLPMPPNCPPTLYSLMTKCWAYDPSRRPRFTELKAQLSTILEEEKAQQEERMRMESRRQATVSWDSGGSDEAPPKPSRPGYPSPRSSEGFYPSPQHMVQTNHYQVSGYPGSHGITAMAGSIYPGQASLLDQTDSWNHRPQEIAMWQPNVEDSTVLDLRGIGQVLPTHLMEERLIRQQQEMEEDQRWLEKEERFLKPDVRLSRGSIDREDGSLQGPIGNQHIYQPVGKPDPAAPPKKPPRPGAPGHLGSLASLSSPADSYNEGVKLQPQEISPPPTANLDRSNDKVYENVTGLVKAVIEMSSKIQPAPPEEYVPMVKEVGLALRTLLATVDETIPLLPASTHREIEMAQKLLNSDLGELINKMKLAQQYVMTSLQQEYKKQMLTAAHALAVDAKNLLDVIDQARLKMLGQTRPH
Outline: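 JHH-4 cells with homozygous CRISPR knock-in of C-terminal HiBiT on endogenous FAK, treated 2 h at 37 °C with compounds in 10-point 3-fold series from 1 μM. HiBiT lytic luminescence read; EC50 from four-parameter logistic fit, Ymax set by DMSO control, Ymin as lower fit limit.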

[1] = JHH-4-FAK-HiBiT clone d01 cells, two hours incubation, 10-point dose response, 3-fold dilution starting at 1 μM, Nano-Glo HiBiT luminescence

| Structure (SMILES) | DC50 (FAK; [1]) [nM] | FAK HiBiT Ymin (FAK) | EC50 (CAL-51 cells; Homo sapiens) [nM] | CAL-51 Prolif Ymin (CAL-51 cells) | EC50 (CAL-51 cells) [nM] | EC50 (FAK; [1]) [nM] |
| --- | --- | --- | --- | --- | --- | --- |
| O=C1CCC(N2Cc3cc(Cn4ncc5c(-c6ncc(C(F)(F)F)cc6F)cc(N6CC(F)C6)nc54)ccc3C2=O)C(=O)N1 (centres unmarked) [Example 55, 3-[5-({4-[3-fluoro-5-(trifluoromethyl)pyridin-2-yl]-6-(3-fluoroazetidin-1-yl)-1H-pyrazolo[3,4-b]pyridin-1-yl}methyl)-1-oxo-2,3-dihydro-1H-isoindol-2-yl]piperidine-2,6-dione] | 3.13 | 20.64 | 3.19 | 36.41 | – | – |
| Cc1cnc(-c2cc(N3CC(F)C3)nc3c2cnn3Cc2ccc3c(c2)CN(C2CCC(=O)NC2=O)C3=O)c(Cl)c1 (centres unmarked) [Example 57, 3-(5-{[4-(3-chloro-5-methylpyridin-2-yl)-6-(3-fluoroazetidin-1-yl)-1H-pyrazolo[3,4-b]pyridin-1-yl]methyl}-1-oxo-2,3-dihydro-1H-isoindol-2-yl)piperidine-2,6-dione] | 3.41 | 8.26 | 1.51 | 25.51 | – | – |
| O=C1CCC(N2Cc3cc(Cn4ncc5c(-c6ncc(OCC(F)(F)F)cc6Cl)cc(N6CC(F)C6)nc54)ccc3C2=O)C(=O)N1 (centres unmarked) [Example 59, 3-[5-({4-[3-chloro-5-(2,2,2-trifluoroethoxy)pyridin-2-yl]-6-(3-fluoroazetidin-1-yl)-1H-pyrazolo[3,4-b]pyridin-1-yl}methyl)-1-oxo-2,3-dihydro-1H-isoindol-2-yl]piperidine-2,6-dione] | 3.54 | 10.50 | 0.87 | 28.60 | – | – |
| CN(c1cc(-c2ncc(C(F)(F)F)cc2Cl)c2cnn(Cc3ccc4c(c3)CN([C@H]3CCC(=O)NC3=O)C4=O)c2n1)C1CC(O)C1 (stereo partly drawn) [Example 64, (3S)-3-[5-({4-[3-chloro-5-(trifluoromethyl)pyridin-2-yl]-6-{methyl[(1s,3s)-3-hydroxycyclobutyl]amino}-1H-pyrazolo[3,4-b]pyridin-1-yl}methyl)-1-oxo-2,3-dihydro-1H-isoindol-2-yl]piperidine-2,6-dione] | – | 9.77 | – | 32.02 | 2.32 | 4.29 |
| COc1cnc(-c2cc(N3CC(F)C3)nc3c2cnn3Cc2ccc3c(c2)CN(C2CCC(=O)NC2=O)C3=O)c(Cl)c1 (centres unmarked) [Example 69, 3-(5-{[4-(3-chloro-5-methoxypyridin-2-yl)-6-(3-fluoroazetidin-1-yl)-1H-pyrazolo[3,4-b]pyridin-1-yl]methyl}-1-oxo-2,3-dihydro-1H-isoindol-2-yl)piperidine-2,6-dione] | 5.55 | 9.26 | 1.84 | 23.38 | – | – |
| O=C1CC[C@H](N2Cc3cc(Cn4ncc5c(-c6ncc(CF)cc6Cl)cc(N6CC(F)C6)nc54)ccc3C2=O)C(=O)N1 [Example 72, (3S)-3-[5-({4-[3-chloro-5-(fluoromethyl)pyridin-2-yl]-6-(3-fluoroazetidin-1-yl)-1H-pyrazolo[3,4-b]pyridin-1-yl}methyl)-1-oxo-2,3-dihydro-1H-isoindol-2-yl]piperidine-2,6-dione] | 6.35 | 7.12 | 1.78 | 23.41 | – | – |
| N#Cc1cnc(-c2cc(N3CC(F)C3)nc3c2cnn3Cc2ccc3c(c2)CN(C2CCC(=O)NC2=O)C3=O)c(Cl)c1 (centres unmarked) [Example 73, 5-chloro-6-(1-{[2-(2,6-dioxopiperidin-3-yl)-1-oxo-2,3-dihydro-1H-isoindol-5-yl]methyl}-6-(3-fluoroazetidin-1-yl)-1H-pyrazolo[3,4-b]pyridin-4-yl)pyridine-3-carbonitrile] | 6.62 | 11.02 | 3.39 | 23.58 | – | – |
| O=C1CC[C@H](N2Cc3cc(Cn4ncc5c(-c6ncc(C(F)(F)F)cc6Cl)cc(N6CC(F)C6)nc54)cnc3C2=O)C(=O)N1 [Example 77, (3S)-3-[3-({4-[3-chloro-5-(trifluoromethyl)pyridin-2-yl]-6-(3-fluoroazetidin-1-yl)-1H-pyrazolo[3,4-b]pyridin-1-yl}methyl)-7-oxo-5H,6H,7H-pyrrolo[3,4-b]pyridin-6-yl]piperidine-2,6-dione] | 8 | 8.29 | 3.67 | 28.95 | – | – |
| O=C1CCC(N2Cc3cc(Cn4ncc5c(-c6ncccc6C(F)(F)F)cc(N6CC(F)C6)nc54)ccc3C2=O)C(=O)N1 (centres unmarked) [Example 79, 3-(5-{[6-(3-fluoroazetidin-1-yl)-4-[3-(trifluoromethyl)pyridin-2-yl]-1H-pyrazolo[3,4-b]pyridin-1-yl]methyl}-1-oxo-2,3-dihydro-1H-isoindol-2-yl)piperidine-2,6-dione] | 8.56 | 10.79 | 3.22 | 23.53 | – | – |

Now from value to molecule, other results behind:

| DC50 (FAK; [1]) [nM] | FAK HiBiT Ymin (FAK) | Structure (SMILES) | EC50 (CAL-51 cells; Homo sapiens) [nM] | CAL-51 Prolif Ymin (CAL-51 cells) | EC50 (CAL-51 cells) [nM] | EC50 (FAK; [1]) [nM] |
| --- | --- | --- | --- | --- | --- | --- |
| 3.72 | 10.37 | O=C1CCC(N2Cc3cc(Cn4ncc5c(-c6ncc(F)cc6Cl)cc(N6CC(F)C6)nc54)ccc3C2=O)C(=O)N1 (centres unmarked) [Example 56, 3-(5-{[4-(3-chloro-5-fluoropyridin-2-yl)-6-(3-fluoroazetidin-1-yl)-1H-pyrazolo[3,4-b]pyridin-1-yl]methyl}-1-oxo-2,3-dihydro-1H-isoindol-2-yl)piperidine-2,6-dione] | 1.67 | 26.66 | – | – |
| 4.08 | 8.81 | Cc1cc(C(F)(F)F)ccc1-c1cc(N2CC[C@H](O)C2)nc2c1cnn2Cc1ccc2c(c1)CN([C@H]1CCC(=O)NC1=O)C2=O [Example 63, (3S)-3-[5-({6-[(3S)-3-hydroxypyrrolidin-1-yl]-4-[2-methyl-4-(trifluoromethyl)phenyl]-1H-pyrazolo[3,4-b]pyridin-1-yl}methyl)-1-oxo-2,3-dihydro-1H-isoindol-2-yl]piperidine-2,6-dione] | 1.92 | 31.58 | – | – |
| 4.47 | 17.03 | O=C1CCC(N2Cc3cc(Cn4ncc5c(-c6ncc(F)cc6F)cc(N6CC(F)C6)nc54)ccc3C2=O)C(=O)N1 (centres unmarked) [Example 65, 3-(5-{[4-(3,5-difluoropyridin-2-yl)-6-(3-fluoroazetidin-1-yl)-1H-pyrazolo[3,4-b]pyridin-1-yl]methyl}-1-oxo-2,3-dihydro-1H-isoindol-2-yl)piperidine-2,6-dione] | 1.89 | 36.07 | – | – |
| 4.63 | 7.72 | Cc1cc(OC(F)F)cnc1-c1cc(N2CC(F)C2)nc2c1cnn2Cc1ccc2c(c1)CN([C@H]1CCC(=O)NC1=O)C2=O [Example 66, (3S)-3-[5-({4-[5-(difluoromethoxy)-3-methylpyridin-2-yl]-6-(3-fluoroazetidin-1-yl)-1H-pyrazolo[3,4-b]pyridin-1-yl}methyl)-1-oxo-2,3-dihydro-1H-isoindol-2-yl]piperidine-2,6-dione] | 1.72 | 27.43 | – | – |
| 5.06 | 9.35 | CCOc1ccc(-c2c(F)c(N3CC[C@](C)(O)C3)nc3c2cnn3Cc2ccc3c(c2)CN([C@H]2CCC(=O)NC2=O)C3=O)c(Cl)c1 [Example 67, (3S)-3-(5-{[4-(2-chloro-4-ethoxyphenyl)-5-fluoro-6-[(3S)-3-hydroxy-3-methylpyrrolidin-1-yl]-1H-pyrazolo[3,4-b]pyridin-1-yl]methyl}-1-oxo-2,3-dihydro-1H-isoindol-2-yl)piperidine-2,6-dione] | 1.6 | 28.60 | – | – |
| 6.88 | 8.00 | CCOc1cnc(-c2cc(N3CC(F)C3)nc3c2cnn3Cc2ccc3c(c2)CN(C2CCC(=O)NC2=O)C3=O)c(CC)c1 (centres unmarked) [Example 74, 3-(5-{[4-(5-ethoxy-3-ethylpyridin-2-yl)-6-(3-fluoroazetidin-1-yl)-1H-pyrazolo[3,4-b]pyridin-1-yl]methyl}-1-oxo-2,3-dihydro-1H-isoindol-2-yl)piperidine-2,6-dione] | 4.11 | 34.11 | – | – |
| 7.95 | 23.15 | N#Cc1ccc(-c2c(F)c(N3CC(F)C3)nc3c2cnn3Cc2ccc3c(c2)CN([C@H]2CCC(=O)NC2=O)C3=O)nc1 [Example 75, 6-[1-({2-[(3S)-2,6-dioxopiperidin-3-yl]-1-oxo-2,3-dihydro-1H-isoindol-5-yl}methyl)-5-fluoro-6-(3-fluoroazetidin-1-yl)-1H-pyrazolo[3,4-b]pyridin-4-yl]pyridine-3-carbonitrile] | 9.67 | 52.27 | – | – |
| 7.97 | 9.51 | O=C1CC[C@H](N2Cc3nc(Cn4ncc5c(-c6ncc(C(F)(F)F)cc6Cl)cc(N6CC(F)C6)nc54)ccc3C2=O)C(=O)N1 [Example 76, (3S)-3-[2-({4-[3-chloro-5-(trifluoromethyl)pyridin-2-yl]-6-(3-fluoroazetidin-1-yl)-1H-pyrazolo[3,4-b]pyridin-1-yl}methyl)-5-oxo-5H,6H,7H-pyrrolo[3,4-b]pyridin-6-yl]piperidine-2,6-dione] | 6.15 | 34.59 | – | – |
